{"source": "patent US11103549B2", "about": "“Use of histone methyltransferase inhibitors and histone deacetylase inhibitors for therapy of Phelan-McDermid Syndrome” (Asddr, LLC, priority 2016, dated 2021)", "key": {"Shank3+/ΔC mice [1]": {"test_system": "Shank3+/ΔC mice", "assay": "Three-chamber social interaction assay in Shank3+/ΔC mice", "assay_type": "in vivo", "settings": "for improvement on social preference: i.p. once daily for 3 days"}, "WT mice": {"test_system": "WT mice", "assay": "Three-chamber social interaction assay in wild-type mice", "assay_type": "in vivo", "settings": "UNC0642 1 mg/kg, i.p., once daily for 3 days, saline control 62.0%±3.1%", "excerpt": "To test the social preference behavior, juvenile male Shank3+/ΔC mice and age-matched wild-type (WT) mice were subject to the three-chamber social interaction assay, as previously described (Duffney et al., 2015). Briefly, the test is composed of three phases with various stimuli placed in each of two side chambers. Phase 1 contains two identical nonsocial stimuli (NS1 & NS1), phase 2 contains a nonsocial stimulus (NS1) and a social stimulus (Soc1), and phase 3 contains a known social stimulus (Soc1) and a novel social stimulus (Soc2). The preference index for one stimulus over the other stimulus in each phase was compared."}, "Shank3+/ΔC mice [2]": {"test_system": "Shank3+/ΔC mice", "settings": "mouse, in vivo"}, "EHMT1/2": {"test_system": "EHMT1/2", "settings": "Liu et al., 2013; cited from earlier work"}, "Shank3+/ΔC mice [3]": {"test_system": "Shank3+/ΔC mice", "settings": "5 mg/kg, i.p. 5 days, Kim et al., 2017; cited from earlier work"}, "[4]": {"settings": "Liu et al., 2013; cited from earlier work"}, "EHMT2/EHMT1": {"test_system": "EHMT2/EHMT1", "settings": "cited from earlier work"}, "acetylated H3": {"test_system": "acetylated H3", "settings": "Shank3+/ΔC mice, romidepsin 0.25 mg/kg, i.p., once daily for 3 days, cortical slices"}, "Shank3e4-9 mice": {"test_system": "Shank3e4-9 mice", "settings": "before and after romidepsin treatment"}, "BTBR T+tf/J mice": {"test_system": "BTBR T+tf/J mice", "settings": "before and after romidepsin treatment"}, "class I HDAC": {"test_system": "class I HDAC", "settings": "Klimek et al., 2008; cited from earlier work"}}, "data": [{"compound": "O=C1CCc2ccc(OCCCCN3CCN(c4cccc(Cl)c4Cl)CC3)cc2N1", "note": "[aripiprazole]", "values": [{"measurement": "improvement on social preference", "setting": "Shank3+/ΔC mice [1]; Shank3+/ΔC mice, aripiprazole 1 mg/kg", "result": "No improvement"}]}, {"compound": "CNCCC(Oc1ccc(C(F)(F)F)cc1)c1ccccc1", "note": "(stereo not drawn) [fluoxetine]", "values": [{"measurement": "improvement of social preference", "setting": "Shank3+/ΔC mice [1]; Shank3+/ΔC mice, fluoxetine 10 mg/kg, i.p. once daily for 2 weeks", "result": "failed to induce any improvement"}]}, {"compound": "CC(/C=C/C(=O)NO)=C\\[C@@H](C)C(=O)c1ccc(N(C)C)cc1", "note": "[Trichostatin A]", "values": [{"measurement": "rescue of autism-like social deficits (social preference index)", "setting": "Shank3+/ΔC mice [1]; Shank3+/ΔC mice, Trichostatin A 0.5 mg/kg, i.p., once daily for 3 days", "result": "fail to persistently rescue autism-like social deficits"}]}, {"compound": "COc1cc2c(NC3CCN(C(C)C)CC3)nc(N3CCC(F)(F)CC3)nc2cc1OCCCN1CCCC1", "note": "[UNC0642, 2-(4,4-Difluoro-1-piperidinyl)-6-methoxy-N-[1-(1-methylethyl)-4-piperidinyl]-7-[3-(1-pyrrolidinyl)propoxy]-4-quinazolinamin]", "values": [{"measurement": "duration of therapeutic effect on social preference post-injection", "setting": "Shank3+/ΔC mice [1]; Shank3+/ΔC mice, UNC0642 1 mg/kg, i.p., once daily for 3 days", "result": "~15", "unit": "days"}, {"measurement": "social preference index (Soc vs. NS, phase 2)", "setting": "Shank3+/ΔC mice [1]; Shank3+/ΔC mice, UNC0642 1 mg/kg, i.p., once daily for 3 days, saline control 22.5%±3.3%", "result": "48.9%±2.3%"}, {"measurement": "effect of repeated administration on social preference", "setting": "Shank3+/ΔC mice [1]; Shank3+/ΔC mice, UNC0642, second round of treatment", "result": "still effective with the repeated administration"}, {"measurement": "social preference index (Soc vs. NS, phase 2)", "setting": "WT mice", "result": "53.4%±5.1%"}, {"measurement": "blood chemistry and hematology: indicators for liver and kidney functions, lipid and protein metabolism", "setting": "Shank3+/ΔC mice [2]", "result": "within normal ranges"}, {"measurement": "selectivity for EHMT1/2 over other methyltransferases", "setting": "EHMT1/2", "result": "> 2,000 fold"}, {"measurement": "toxicity at higher dose and longer duration", "setting": "Shank3+/ΔC mice [3]", "result": "lack of toxicity"}, {"measurement": "brain penetration in vivo", "setting": "[4]", "result": "modest brain penetration"}]}, {"compound": "CCCC(CCC)C(=O)O", "note": "[valproic acid]", "values": [{"measurement": "rescue of autism-like social deficits (social preference index)", "setting": "Shank3+/ΔC mice [1]; Shank3+/ΔC mice, valproic acid 100 mg/kg, i.p., once daily for 3 days", "result": "fail to persistently rescue autism-like social deficits"}]}, {"compound": "Cc1nc2n(c(=O)c1CCN1CCC(c3noc4cc(F)ccc34)CC1)CCCC2", "note": "[risperidone]", "values": [{"measurement": "improvement on social preference", "setting": "Shank3+/ΔC mice [1]; Shank3+/ΔC mice, risperidone 0.1 mg/kg", "result": "No improvement"}]}, {"compound": "COc1cc2c(cc1OCCCN1CCCC1)N=C(N)C21CCC1", "note": "[A-366]", "values": [{"measurement": "selectivity over other methyltransferases and other non-epigenetic targets", "setting": "EHMT2/EHMT1", "result": "> 100", "unit": "fold"}, {"measurement": "IC50", "setting": "EHMT2/EHMT1; peptide-competitive inhibitor, read-out: enzymatic IC50 EHMT2/EHMT1", "result": "~3", "unit": "nM"}]}, {"compound": "Romidepsin", "values": [{"measurement": "duration of effect on social preference post-injection", "setting": "Shank3+/ΔC mice [1]; mouse, in vivo", "result": 21, "unit": "days"}, {"measurement": "preference for social stimulus over non-social object", "setting": "Shank3+/ΔC mice [1]; mouse, in vivo", "result": "significantly elevated the preference for the social stimulus"}, {"measurement": "level of acetylated H3", "setting": "acetylated H3", "result": "significantly elevated the level of acetylated H3"}, {"measurement": "rescue of autism-like social deficits (social preference index)", "setting": "Shank3e4-9 mice", "result": "rescues autism-like social deficits in multiple mouse models of autism"}, {"measurement": "rescue of autism-like social deficits (social preference index)", "setting": "BTBR T+tf/J mice", "result": "rescues autism-like social deficits"}, {"measurement": "potency as class I-specific HDAC inhibitor", "setting": "class I HDAC", "result": "nanomolar potency"}]}]}
